Measured values as given in PubChem BioAssay (NCI).
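These data come from cells grown in 96-well plates and exposed to compound for 48 hours at five concentrations. TGI marks complete inhibition of growth.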

Experiments:
Test in all cases: DTP human tumour cell line panel, 48 h
NCI-H226 lung = tested on: NCI-H226 lung
HOP-18 NSCLC = tested on: HOP-18 NSCLC
XF 498 CNS = tested on: XF 498 CNS
DLD-1 colon = tested on: DLD-1 colon
SNB-78 CNS = tested on: SNB-78 CNS

Structure (SMILES)	TGI (NCI-H226 lung) [µM]	TGI (HOP-18 NSCLC) [µM]	TGI (XF 498 CNS) [µM]	TGI (DLD-1 colon) [µM]	TGI (SNB-78 CNS) [µM]
CCCCn1c(C)c2c(c1C)C(=O)N(CCN1CCN(c3ccccc3Cl)CC1)C2=O	> 100	–	–	–	–
CC(=O)OCc1nnn2c1CCC2	–	> 100	> 100	> 100	> 100
